# Data: PMC10864208, “Characterizing the protein–protein interaction between MDM2 and 14-3-3σ; proof of concept for small molecule stabilization” (The Journal of Biological Chemistry, 2024)
# Where two headings read alike, the source gives them in different places. Non-standard residues stand in square brackets, D forms with d. Residues, ends and D or L forms follow the SMILES beside them. pS = N[C@@H](COP(=O)(O)O)C(=O)O
# Legend:
# [1] = test system: 14-3-3σ/MDM2_159-173^pS166 peptide; assay: FP, FC-A effect on 14-3-3σ/MDM2 159-173 pS166; type: binding; conditions: 1.0 mM FC-A, 10 nM FITC-labeled MDM2_159-173^pS166; accurate fit not obtained
# From the text: (§1) . Red arrows highlight peaks for the ternary complex.
# 14-3-3σ/MDM2 complex = assay: native mass spectrometry, ternary complex with FC-A; type: binding; conditions: for relative abundance of ternary complex 14-3-3σ + MDM2 + FC-A (native MS): pH 6.8, SD, n = 3
# Method: as §1
# 14-3-3 σ was buffer exchanged into 100 mM ammonium acetate pH 6.8 using a 30 kDa molecular weight cut-off Amicon Ultra centrifugal filter (Merck Millipore) and stored at −80 °C prior to use. […] . All native MS experiments were performed on an Orbitrap Eclipse Tribrid mass spectrometer (Thermo Fisher Scientific, Bremen) coupled to a nanoelectrospray source that used gold-coated borosilicate glass capillaries, pulled in-house. Positive ionization mode was used throughout with the capillary voltage set to 1.2 kV. The source temperature was set at 275 °C, in-source dissociation at 25, S-lens RF at 100. High pressure mode was used and a mass range of 2000 to 8000 m/z used to monitor the binding equilibria. Mass spectra were acquired using a maximum ion injection time of 50 ms. The automatic gain control was set to 1 x 10^6 and the ions detected in the Orbitrap with resolution set to 7500. All data was analyzed using XCalibur (v.4.1). All proteins and protein complexes were identified based on their theoretical mass.
# Analytical grade ammonium acetate and LC-MS grade Dimethyl Sulfoxide (DMSO) were purchased from Fisher Scientific. 14-3-3 σ was buffer exchanged into 100 mM ammonium acetate pH 6.8 using a 30 kDa molecular weight cut-off Amicon Ultra centrifugal filter (Merck Millipore) and stored at -80 °C prior to use. The lyophilised MDM2161-191^pS166/pS186 31mer peptide (see Table S4) was diluted into 100mM ammonium acetate pH 6.8. […] . To quantify each complex, the relative abundance of the complexes observed was assumed to reflect their abundance in solution. Due to overlapping peaks, 15+ ions were excluded from analysis. […] . Standard deviations of the abundance of each complex were calculated from 3 replicates.
# 14-3-3 PPIs = conditions: cited from earlier work
# From the text: To investigate the feasibility of this, the effect of fusicoccin A (FC-A) on the PPI was studied using FP, ITC, and native MS.
# [2] = molecular target: 14-3-3σ/MDM2_179-193^pS186 peptide (Homo sapiens, UniProt P31947+Q00987); assay: biochemical
# Method: (§2) For all experiments, a fixed concentration of 10 nM fluorescently labeled peptide (FITC) was used. […] All data was analyzed using GraphPad Prism 7 and sigmoidal curves were fitted using the following equation: Y=Bottom + (Top-Bottom)/(1+10ˆ((Log app.Kd-X)∗HillSlope)), where Y = mP value; X = log 14-3-3 concentration; top and bottom = plateaus in mP.
# 14-3-3σ = molecular target: T1, 14-3-3σ (Homo sapiens, UniProt P31947); assay: fluorescence polarization (FP), direct binding to 14-3-3σ; conditions: for binding to 14-3-3σ by FP (in words) / maximum polarization level (in words): FITC-labeled peptide 10 nM; for binding to 14-3-3σ by FP (in words): pH 7.5; for maximum polarization level (in words): 14-3-3σ titration
# T1 sequence (P31947 1-248): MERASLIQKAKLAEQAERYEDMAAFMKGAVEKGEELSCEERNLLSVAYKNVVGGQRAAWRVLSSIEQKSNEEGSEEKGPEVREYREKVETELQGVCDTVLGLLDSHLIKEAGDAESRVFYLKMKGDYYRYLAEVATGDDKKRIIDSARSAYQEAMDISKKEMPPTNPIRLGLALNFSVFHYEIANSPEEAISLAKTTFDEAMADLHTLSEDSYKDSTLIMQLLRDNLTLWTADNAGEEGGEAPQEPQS
# Method: as §2
# (§3) Both proteins were prepared via the following procedure:
# (§4) For all experiments a fixed concentration of 10 nM fluorescently labelled peptide (FITC) was used. […] All data was analysed using GraphPad Prism 7 and sigmoidal curves were fitted using the following equation:
# 14-3-3ζ = molecular target: T2, 14-3-3ζ (Homo sapiens, UniProt P63104); assay: fluorescence polarization (FP), direct binding to 14-3-3ζ
# T2 sequence (P63104 1-245): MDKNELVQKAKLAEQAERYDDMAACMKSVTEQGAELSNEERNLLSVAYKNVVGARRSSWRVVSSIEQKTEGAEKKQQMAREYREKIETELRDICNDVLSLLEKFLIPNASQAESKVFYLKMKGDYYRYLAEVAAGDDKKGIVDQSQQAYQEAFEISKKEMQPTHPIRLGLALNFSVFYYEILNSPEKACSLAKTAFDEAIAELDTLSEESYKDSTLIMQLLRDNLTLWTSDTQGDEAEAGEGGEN
# Method: as §2, §3, §4
# 14-3-3σ and 14-3-3ζ = assay: ITC, mono-phosphorylated MDM2 peptides; type: binding; conditions: N-acetylated peptide 1.0 mM into 14-3-3 100 µM, 25 °C, pH 7.5, Malvern MicroCal ITC200
compound,measurement,setting,value
"C=CC(C)(C)OC[C@H]1O[C@H](O[C@@H]2C3=C([C@H](C)COC(C)=O)C[C@H](O)[C@]3(C)/C=C3/[C@@H](COC)CC[C@H]3[C@@H](C)[C@H]2O)[C@H](O)[C@@H](OC(C)=O)[C@@H]1O [FC-A, fusicoccin A]","effect of FC-A on binding (FP, in words)",[1],small effect
same,relative abundance of ternary complex 14-3-3σ + MDM2 + FC-A (native MS),14-3-3σ/MDM2 complex; 14-3-3σ 5 μM : MDM2 10 μM : FC-A 5 μM,6 ± 3%
same,relative abundance of ternary complex 14-3-3σ + MDM2 + FC-A (native MS),14-3-3σ/MDM2 complex; 14-3-3σ 5 μM : MDM2 10 μM : FC-A 25 μM,15 ± 5%
same,"composition of ternary complex (native MS, in words)","14-3-3σ/MDM2 complex; 14-3-3σ 5 μM, MDM2 peptide 10 μM, FC-A 5 or 25 μM","a 14-3-3 dimer, a single MDM2 di-phosphorylated peptide, and a single FC-A molecule"
same,"stabilization of di-phosphorylated mode I/II motif peptides, e.g. CFTR (in words)",14-3-3 PPIs; ref [27],shown to stabilize peptides containing mode I/II type di-phosphorylated binding motifs
same,stabilization of mode III 14-3-3 PPIs (in words),14-3-3 PPIs; ref [43],predominantly stabilizes mode III 14-3-3 PPIs
CC[C@H](C)[C@H](NC(=O)[C@H](CO)NC(=O)[C@H](CC(=O)O)NC(=O)[C@H](COP(=O)(O)O)NC(=O)[C@H](CCCCN)NC(=O)[C@H](Cc1c[nH]cn1)NC(=O)[C@H](CCCNC(=N)N)NC(=O)[C@H](CCCCN)NC(=O)[C@H](CCCNC(=N)N)NC(=O)[C@H](CCC(N)=O)NC(=O)[C@H](CCCNC(=N)N)NC(C)=O)C(=O)N[C@@H](CO)C(=O)N[C@@H](CC(C)C)C(=O)N[C@@H](CO)C(=O)N[C@@H](Cc1ccccc1)C(N)=O [MDM2_179-193^pS186] (Ac-RQRKRHK[pS]DSISLSF-NH2),Kd,[2],24.6 ± 12 µM
same,Kd,14-3-3σ,26.2 ± 17.9 µM
same,Kd,"14-3-3σ; Kd (FP), duplicate data, duplicate data set (Fig. S1A), 14-3-3σ titrated to 10 nM FITC-labelled peptide, pH 7.5, room temperature, SD, n=3",22.3 ± 21.5 µM
same,Kd,14-3-3ζ,11.4 ± 5.4 µM
"AcHN-^159SSRRRAI(pS)ETEENSD^173-NH2 (Ac-SSRRRAI[pS]ETEENSD-NH2; SMILES CC[C@H](C)[C@H](NC(=O)[C@H](C)NC(=O)[C@H](CCCNC(=N)N)NC(=O)[C@H](CCCNC(=N)N)NC(=O)[C@H](CCCNC(=N)N)NC(=O)[C@H](CO)NC(=O)[C@H](CO)NC(C)=O)C(=O)N[C@@H](COP(=O)(O)O)C(=O)N[C@@H](CCC(=O)O)C(=O)N[C@H](C(=O)N[C@@H](CCC(=O)O)C(=O)N[C@@H](CCC(=O)O)C(=O)N[C@@H](CC(N)=O)C(=O)N[C@@H](CO)C(=O)N[C@@H](CC(=O)O)C(N)=O)[C@@H](C)O; UniProt Q00987 159-173, looked up, fragment) [MDM2_159-173^pS166]",binding by ITC (in words),14-3-3σ and 14-3-3ζ,could not be detected
same,binding to 14-3-3σ by FP (in words),14-3-3σ,bound weakly to 14-3-3σ and saturation was not observed
same,binding to 14-3-3ζ by FP (in words),"14-3-3ζ; FITC-labeled peptide 10 nM, pH 7.5","bound weakly to 14-3-3ζ, and no effective Kd value could be obtained"
"FITC-Ahx-^159SSRRRAI(pS)ETEENSDELSGERQRKRHKSDSISLSF^193-NH2 (SSRRRAISETEENSDELSGERQRKRHKSDSISLSF; phosphoSer166; FITC label; UniProt Q00987 159-193, looked up, fragment) [MDM2_159-193^pS166]",maximum polarization level (in words),14-3-3σ,small increase in the maximum polarization value
same,binding to 14-3-3σ by FP (in words),14-3-3σ,saturation was not observed and an effective Kd value could not be obtained
"FITC-Ahx-^159SSRRRAISETEENSDELSGERQRKRHK(pS)DSISLSF^193-NH2 (SSRRRAISETEENSDELSGERQRKRHKSDSISLSF; phosphoSer186; FITC label; UniProt Q00987 159-193, looked up, fragment) [MDM2_159-193^pS186]",maximum polarization level (in words),14-3-3σ,comparable to that observed for the di-phosphorylated MDM2_161-191^pS166/pS186 peptide
same,binding to 14-3-3σ by FP (in words),14-3-3σ,much weaker affinity than the 15 amino acid MDM2_179-193^pS186 peptide
